Experimental data reported in patent publication US10188625B2, “Combination of a retinoid and a diol and polyunsaturated fatty acid ester” (PIERRE FABRE DERMO-COSMETIQUE, priority 2015, dated 2019).

Experiments:
[1] = test system: retentional lesions (open and closed comedones); assay: Clinical study (open) of creams: count of retentional lesions in subjects with mild to moderate acne; type: in vivo, human; details: topical cream (retinaldehyde 0.1% and/or Compound A 0.6%)
From the text: The clinical trial was an open study involving 60 subjects (men and women) between 12 and 35 years of age with mild to moderate acne for purposes of testing the tolerance and efficacy of Composition 2.
All of the participants initially had more than 10 retentional lesions (open and closed comedones) on their skin (excluding the nasal pyramid).
The cream was applied to the face (clean skin) in the evening by means of gentle massage.
The lesions were counted at T0 (before the first treatment), T3 weeks and T6 weeks according to the method described by Lucky (Lucky AW et al. (1996)).
The clinical trial was an open study involving 29 subjects (men and women) between 12 and 35 years of age with mild to moderate acne for purposes of testing the tolerance and efficacy of cream having the following composition:
All of the participants initially had more than 10 retentional lesions (open and closed comedones) on their skin.
The lesions were counted at T0, T3 weeks and T6 weeks.
The clinical trial was an open study involving 46 subjects (men and women) between 12 and 35 years of age with mild to moderate acne for purposes of testing the tolerance and efficacy of cream having the following composition:
The cream was applied to the face (clean skin) twice per day (morning and evening) by means of gentle massage.

[2] = test system: genes responsible for differentiation in keratinocytes (human skin explants); assay: Microarray analysis of differentiation genes in human skin explants treated topically with retinaldehyde; type: cell-based
Procedure: In these experiments, retinaldehyde was applied topically for 24 hours at a concentration of 0.025% dissolved in Myritol on human skin explants (of 3 donors) kept alive in culture medium (Dulbecco's Modified Eagle Medium (DMEM)+10% fetal bovine serum (FBS)). Myritol alone was used as the control. At the conclusion of this treatment, the RNA is extracted, inspected for quality, and analyzed by means of a microarray (Agilent Technology). They are averaged fold-change values below 1.8 (p<0.05). A fold change of −2.00 corresponds to a decrease in gene expression of about 50%.

[3] = test system: keratinocyte proliferation; assay: Keratinocyte proliferation; type: cell-based
[4] = test system: genes responsible for differentiation in keratinocytes (human skin explants); assay: Microarray analysis of differentiation genes in human skin explants treated topically with retinaldehyde; type: cell-based; details: 0.025% in Myritol, topical 24 hours
[5] = human skin explants (3 donors), control Myritol alone, p 0.115

Question: How did the “Change in mean number of retentional lesions” value (“Change in mean number” for short) ([1]; T = 3 weeks) turn out when `CC/C=C\C/C=C\C/C=C\CCCCCCCC(=O)OCC(O)CCCCCC` (centres unmarked) [Compound A] was run?
Answer: Its value is −6%.

Question: And the “Change in mean number” value ([1]; T = 6 weeks)?
Answer: The value was −19%.

Question: Which “Change in mean number” value ([1]; T = 3 weeks) does the source give for `CC1=C(/C=C/C(C)=C/C=C/C(C)=C/C=O)C(C)(C)CCC1` [Retinaldehyde, retinaldehyde] here?
Answer: The value was −23%.

Question: And the “Change in mean number” value ([1]; T = 6 weeks)?
Answer: Its value is −37%.

Question: What about the “Fold change, KRTCAP3 (keratinocyte associated protein 3)” value ([2]; 0.025% in Myritol, topical 24 hours, human skin explants (3 donors), control Myritol alone, p 0.009) of the same compound?
Answer: Its value is −1.81.

Question: What about the “Fold change, KRT6A (keratin 6A)” value ([2]; 0.025% in Myritol, topical 24 hours, human skin explants (3 donors), control Myritol alone, p 0.012) of the same compound?
Answer: Its value is −2.83.

Question: And the “Fold change, KRT6C (keratin 6C)” value ([2]; 0.025% in Myritol, topical 24 hours, human skin explants (3 donors), control Myritol alone, p 0.015)?
Answer: The value was −3.61.

Question: What about the “Fold change, FLJ46111 (keratin 8 pseudogene)” value ([2]; 0.025% in Myritol, topical 24 hours, human skin explants (3 donors), control Myritol alone, p 0.016) of the same compound?
Answer: The value was −2.71.

Question: What about the “Fold change, EPPK1 (epiplakin 1)” value ([2]; 0.025% in Myritol, topical 24 hours, human skin explants (3 donors), control Myritol alone, p 0.042) of the same compound?
Answer: The value was −1.60.

Question: What about the “effect on keratinocyte differentiation” value ([2]; conclusion from gene modulation in human skin explants) of the same compound?
Answer: Its value is “inhibits keratinocyte differentiation”.

Question: And the “effect on cell (keratinocyte) proliferation” value [3]?
Answer: Its value is “does not increase cell proliferation”.

Question: What about the “number of keratins inhibited” value ([4]; human skin explants) of the same compound?
Answer: Its value is 11.

Question: What about the “number of targets of terminal keratinocyte differentiation inhibited” value ([4]; human skin explants) of the same compound?
Answer: The value was 13.

Question: What about the “Fold change, CNFN (cornifelin)” value ([4]; human skin explants (3 donors), control Myritol alone, p 0.004) of the same compound?
Answer: Its value is −1.56.

Question: And the “Fold change, KRT16 (keratin 16)” value ([4]; human skin explants (3 donors), control Myritol alone, p 0.027)?
Answer: The value was −2.63.

Question: What about the “Fold change, CDSN (corneodesmosin)” value ([4]; human skin explants (3 donors), control Myritol alone, p 0.052) of the same compound?
Answer: The value was −1.49.

Question: What about the “Fold change, DSG3 (desmoglein 3)” value ([4]; human skin explants (3 donors), control Myritol alone, p 0.056) of the same compound?
Answer: The value was −1.77.

Question: And the “Fold change, DSC1 (desmocollin 1)” value ([4]; human skin explants (3 donors), control Myritol alone, p 0.058)?
Answer: The value was −1.70.

Question: And the “Fold change, DSG1 (desmoglein 1)” value ([4]; human skin explants (3 donors), control Myritol alone, p 0.070)?
Answer: The value was −1.68.

Question: And the “Fold change, EVPL (envoplakin)” value ([4]; human skin explants (3 donors), control Myritol alone, p 0.072)?
Answer: Its value is −1.41.

Question: What about the “Fold change, UPK2 (uroplakin 2)” value ([4]; human skin explants (3 donors), control Myritol alone, p 0.091) of the same compound?
Answer: The value was −1.53.

Question: And the “Fold change, DSC3 (desmocollin 3)” value ([4]; human skin explants (3 donors), control Myritol alone, p 0.095)?
Answer: Its value is −1.55.

Question: What about the “Fold change, KRTAP11-1 (keratin associated protein 11-1)” value [4, 5] of the same compound?
Answer: The value was −4.68.

Question: And the “Fold change, LCE3A (late cornified envelope 3A)” value [4, 5]?
Answer: Its value is −2.73.

Question: And the “Fold change, LCE3D (late cornified envelope 3D)” value ([4]; human skin explants (3 donors), control Myritol alone, p 0.271)?
Answer: The value was −1.90.

Question: What about the “Fold change, KRTAP3-1 (keratin associated protein 3-1)” value ([4]; human skin explants (3 donors), control Myritol alone, p 0.288) of the same compound?
Answer: The value was −2.09.

Question: And the “Fold change, KRT6B (keratin 6B)” value ([4]; human skin explants (3 donors), control Myritol alone, p 0.325)?
Answer: Its value is −1.83.

Question: What about the “Fold change, KRT27 (keratin 27)” value ([4]; human skin explants (3 donors), control Myritol alone, p 0.372) of the same compound?
Answer: Its value is −2.66.

Question: What about the “Fold change, KRT86 (keratin 86)” value ([4]; human skin explants (3 donors), control Myritol alone, p 0.472) of the same compound?
Answer: Its value is −2.19.
